Measurements published in patent US8420311B2, “Method to block the infection by flaviviruses, molecules and uses” (Centro de Ingenieria Genetica y Biotecnologia, priority 2006, dated 2013).
Bridges are numbered along the chain shown (N, C = ends). Where no end group is shown, it is not given here.

B1: non-activated A2M: non-activated variant of purified human A2M (protein)
chain: SVSGKPQYMVLVPSLLHTETTEKGCVLLSYLNETVTVSASLESVRGNRSLFTDLEAENDVLHCVAFAVPKSSSNEEVMFLTVQVKGPTQEFKKRTTVMVKNEDSLVFVQTDKSIYKPGQTVKFRVVSMDENFHPLNELIPLVYIQDPKGNRIAQWQSFQLEGGLKQFSFPLSSEPFQGSYKVVVQKKSGGRTEHPFTVEEFVLPKFEVQVTVPKIITILEEEMNVSVCGLYTYGKPVPGHVTVSICRKYSDASDCHGEDSQAFCEKFSGQLNSHGCFYQQVKTKVFQLKRKEYEMKLHTEAQIQEEGTVVELTGRQSSEITRTITKLSFVKVDSHFRQGIPFFGQVRLVDGKGVPIPNKVIFIRGNEANYYSNATTDEHGLVQFSINTTNVMGTSLTVRVNYKDRSPCYGYQWVSEEHEEAHHTAYLVFSPSKSFVHLEPMSHELPCGHTQTVQAHYILNGGTLLGLKKLSFYYLIMAKGGIVRTGTHGLLVKQEDMKGHFSISIPVKSDIAPVARLLIYAVLPTGDVIGDSAKYDVENCLANKVDLSFSPSQSLPASHAHLRVTAAPQSVCALRAVDQSVLLMKPDAELSASSVYNLLPEKDLTGFPGPLNDQDDEDCINRHNVYINGITYTPVSSTNEKDMYSFLEDMGLKAFTNSKIRKPKMCPQLQQYEMHGPEGLRVGFYESDVMGRGHARLVHVEEPHTETVRKYFPETWIWDLVVVNSAGVAEVGVTVPDTITEWKAGAFCLSEDAGLGISSTASLRAFQPFFVELTMPYSVIRGEAFTLKATVLNYLPKCIRVSVQLEASPAFLAVPVEKEQAPHCICANGRQTVSWAVTPKSLGNVNFTVSAEALESQELCGTEVPSVPEHGRKDTVIKPLLVEPEGLEKETTFNSLLCPSGGEVSEELSLKLPPNVVEESARASVSVLGDILGSAMQNTQNLLQMPYGCGEQNMVLFAPNIYVLDYLNETQQLTPEVKSKAIGYLNTGYQRQLNYKHYDGSYSTFGERYGRNQGNTWLTAFVLKTFAQARAYIFIDEAHITQALIWLSQRQKDNGCFRSSGSLLNNAIKGGVEDEVTLSAYITIALLEIPLTVTHPVVRNALFCLESAWKTAQEGDHGSHVYTKALLAYAFALAGNQDKRKEVLKSLNEEAVKKDNSVHWERPQKPKAPVGHFYEPQAPSAEVEMTSYVLLAYLTAQPAPTSEDLTSATNIVKWITKQQNAQGGFSSTQDTVVALHALSKYGAATFTRTGKAAQVTIQSSGTFSSKFQVDNNNRLLLQQVSLPELPGEYSMKVTGEGCVYLQTSLKYNILPEKEEFPFALGVQTLPQTCDEPKAHTSFQISLSVSYTGSRSASNMAIVDVKMVSGFIPLKPTVKMLERSNHVSRTEVSSNHVLIYLDKVSNQTLSLFFTVLQDVPVRDLKPAIVKVYDYYETDEFAIAEYNAPCSKDLGNA

Key:
DV1 = assay type: cell-based, dengue virus; conditions: peptides 0.1 mg/ml; Vero cells
Description: (§1) FIG. 17. Inhibition of the infection of Vero cells with DV1 and DV2. (A) Six-well plates with a monolayer at approximately 90% confluence were incubated for 30 min. at 37° C. with dilutions of the peptides in MEM medium. A dilution of either DV1 strain West Pac 74 or DV2 strain S16803 was then added, calculated so as to obtain an average of 100 lytic plaques per well, and the plates were incubated for 30 min. at 37° C. with the virus/peptide mixture. After the incubation the cells were washed twice, received the addition of MEM medium supplemented with non-essential amino acids, 1% fetal calf serum, 1% CMC, and finally were incubated for 5 days at 37° C. under a CO2 atmosphere. (B) Inhibitory effect of the peptides at 100 μMol/L. NRpep: Non-related peptide. Data on the sequence of the peptides 3H5pept (SEQ ID. 27), pepDIII-1 (SEQ ID. 28), HIII2CL (SEQ ID. 5) and HIII3CL (SEQ ID. 7), as well as on the region they span on DIII from DV, can be obtained from FIG. 11. The calculation of the inhibition percentages is described in Materials and Methods. (C) Inhibition of DV2 infection by using varying peptide concentrations. The viral plaques were visualized by staining with Naphtol Blue Black. Cell control: Untreated cells. Virus control: Cells incubated with the virus, but without peptide.
(§2) DIII has one of the most variable regions of the exposed surface of protein E. In fact, one of the antigenic characteristics of this domain is that the antibodies obtained against this region are predominantly serotype-specific (Roehrig J T, Bolin R A, Kelly R G (1998) Monoclonal antibody mapping of the envelope glycoprotein of the dengue 2 virus, Jamaica Virology 246:317-28). However, during the inhibition assay with different DV serotypes, the peptides display a wide-spectrum inhibitory activity, efficiently inhibiting the infection of strains of the homologous, as well as of the heterologous serotypes (table 3). It is important to notice that at the assayed concentration (0.1 mg/ml) all the peptides in all the conditions, with the exception of peptide HIII4CL for DV3, produced higher than 50% inhibition levels.

DV2 = assay type: cell-based, dengue virus; conditions: peptides 0.1 mg/ml; Vero cells
Description: as §1, §2

DV3 = assay type: cell-based, dengue virus; conditions: peptides 0.1 mg/ml; Vero cells
Description: as §2

DV4 = assay type: cell-based, dengue virus; conditions: peptides 0.1 mg/ml; Vero cells
Description: as §2

A2MR receptor = assay: Effect of peptides on the binding of fluoresceinated A2M and RAPR13 to Vero cells (flow cytometry); assay type: cell-based, monkey; conditions: increasing peptide concentrations (FIG. 19)
Description: FIG. 19. Effect produced on the binding of A2M and RAPR13 to the surface of Vero cells by simultaneous incubation with the peptides. The fluoresceinated A2M and RAP13 proteins were incubated for 30 min. at 4° C. with pre-fixed Vero cells in the presence of varying concentrations of HIII2CL and 3H5pept in order to reach the indicated molar peptide/protein ratios. The binding of the labeled ligands was detected by flow cytometry.
In order to obtain a direct evidence of the interaction with the A2MR receptor, the effect of one of the designed peptides on the binding of the natural ligands of A2MR to Vero cells was investigated. The assay was performed with fluoresceinated A2M and RAPR13, measuring their binding to Vero cells in the presence of increasing concentrations of the HDIII2CL peptide. The amount of protein bound to the cells was estimated by flow cytometry, using recombinant human EGF (rhEGF) as a negative control for the experiment, since it is known that Vero cells express the EGF receptor in their surface (Copp J, Wiley S, Ward M W, van der Geer P (2005) Hypertonic shock inhibits growth factor receptor signaling, induces caspase-3 activation, and causes reversible fragmentation of the mitochondrial network. Am J Physiol Cell Physiol. 288:C403-15).

mAb 3H5 = assay: Recognition by mAb 3H5 in Western blotting / dot blotting; assay type: binding; conditions: signal lost upon reduction and carbamidomethylation
Description: FIG. 12. (A) Sequence of the peptides designed to mimic different regions on the surface of DIII. The residue numbering corresponds to the sequence for protein E of DV serotype 2, strain Jamaica 1409, available from the Swiss-Prot databank with access number P07564. The underlined residues are not present in protein E and were introduced during design. The cysteine residues are used to restrict the structural mobility of the peptide by a disulphide bridge. (B) Recognition of the HDIII2Cs peptide by the neutralizing antibody 3H5 in a Western blotting assay. 50 μg of the BSA-peptide conjugates and 20 μg of the recombinant protein PD5 were electrophoresed on a 12.5% SDS-PAGE gel and transferred to a nitrocellulose membrane. After blocking, the membrane was incubated with a dilution (30 μg/mL) of the 3H5 mAb for 2 hours at 25° C. The bound antibody was detected with an anti-mouse IgG-peroxidase conjugate, and the blots were developed using chemiluminescence. (C) Two pieces of nitrocellulose membrane were sensitized in parallel with 10 μg of each variant of the protein and of the peptides. […]
With the aim of evaluating the recognition of peptide HDIII2Cs by mAb 3H5, peptide-BSA conjugates were prepared and analyzed by Western blotting with this antibody (FIG. 12B). […]

DV = assay: Inhibition of the infection of Vero cells with DV by pre-incubation of the virus with A2M; assay type: cell-based, dengue virus; conditions: incubation times with virus longer than 30 minutes (FIG. 20B)
Description: FIG. 20. Inhibition of the infection of Vero cells with DV by pre-incubation with A2M. Viral preparations were incubated 1 h at 25° C. (A and C) or the indicated time (B) with the proteins i. e. activated A2M (A2Mact), non-activated A2M (A2M no act) and a non-related protein (NR). The mixtures of the proteins with the virus were added to monolayers of Vero cells and incubated for 1 h at 37° C. The cell monolayers were washed to eliminate non-bound virus. Next, medium MEM supplemented with non-essential amino acids and 1% FBS, 1% CMC was added and the cells were incubated for 5 days at 37° C. in a CO2 incubator. To visualize the viral plaques, Vero cells were stained using Naphtol Blue Black. All experimental points were performed on duplicates.
To obtain further evidences of the interaction of DV with A2M, the two variants of the protein i.e. activated and non-activated were used in assays of inhibition of infection of Vero cells. The viral preparation was incubated with solutions of activated A2M of higher concentrations than the physiological concentrations reached by this variant of the protein. Solutions of equimolar concentration of non-activated A2M and a non-related protein were used as negative controls. […]

Molecule | degree of reduction of the number of viral plaques, DV1 (DV1) | degree of reduction of the number of viral plaques, DV2 (DV2) | degree of reduction of the number of viral plaques, DV3 (DV3) | degree of reduction of the number of viral plaques, DV4 (DV4) | amount of surface-bound RAPR13 (A2MR receptor) | recognition by mAb 3H5 (mAb 3H5) | increase of viral infection (DV) [%]
3H5pept: peptide reported in the literature as part of the epitope recognized by mAb 3H5, SEQ ID. 27 (KAQLKLNWFKKGSS) [Peptide 3H5pept, reference compound] | − (Less than 10% decrease in the number of plaques) | − (Less than 10% decrease in the number of plaques) | − (Less than 10% decrease in the number of plaques) | − (Less than 10% decrease in the number of plaques) | does not produce variations |  | 
HDIII2Cs: cyclic peptide corresponding to Ile379-Lys388 from protein E of DV2, Seq. ID. 4 (CIIGVEPGQLKC-NH2; disulfide 1-12) | − (Less than 10% decrease in the number of plaques) | − (Less than 10% decrease in the number of plaques) | − (Less than 10% decrease in the number of plaques) | − (Less than 10% decrease in the number of plaques) |  | recognized by mAb 3H5 | 
B1 |  |  |  |  |  |  | ≤ 50
